The text below walks through data of patent US20030212034A1, “Method of treatment of obesity and paralyzed muscle and ergogenic aids” (priority 2002, published 2003).

Format in all cases: in vivo, rat
Data set [1] is described as follows: ZMP concentration in muscle after AICAR injection. The note with it: for ZMP concentration: one hour after AICAR injection in rats given daily injections for 4 weeks. Here is the method: Resuspended ammonium sulfate precipitates of tissue homogenates were analyzed for AMPK activity and acetyl-CoA carboxylase activity as described previously. Li, B., et al. J. Biol. Chem. 274:17534-17540, 1999; Winder, W. W., & D. G. Hardie Am. J. Physiol. 270:E299-E304, 1996. […] ACC activity at 0.2 mM citrate provides some indication of the in vivo activity of AMPK, since ACC is a target for phosphorylation of AMPK. ACC activity has previously been reported to decrease in response to phosphorylation by AMPK. Winder, W. W., & D. G. Hardie Am. J. Physiol. 270:E299-E304, 1996. The acute experiment was also repeated on rats treated with AICAR or saline for 4 weeks to see if the responses of AMPK and ACC to AICAR persisted for the entire treatment period. In both experiments ATP and CP were measured on neutralized perchloric acid extracts of muscle.
After obtaining results on blunted acute response to an AICAR injection on AMPK in chronically treated rats, an additional experiment was done to determine if intermittent treatment of rats with AICAR would influence the extent of the increase in citrate synthase. This experiment was also of shorter duration to minimize down regulation that appeared to occur with prolonged treatment. Rats were injected for three days (1 mg/g) followed by two days of no treatment. They were then injected for five days, followed by another two days with no treatment and then for three additional days before killing 20-24 hours following the last injection. Rats were anesthetized and tissues were collected and frozen as before. Analytical methods. Muscles from rats killed 1 h after injection of AICAR or saline were analyzed for AMPK, acetyl-CoA carboxylase (ACC) at 0.2 mM citrate, ATP and CP and ZMP. Li, B., et al. J. Biol. Chem. 274:17534-17540, 1999; Winder, W. W., & D. G. Hardie Am. J. Physiol. 270:E299-E304, 1996; Heinz, F., & H. Weisser. Creatine phosphate. In: Methods of Enzymatic Analysis, edited by H. U. Bergmeyer. New York: Academic, 1983, p. 507-514.

Data set [2] relates to AMP-activated protein kinase (AMPK). Description: AMPK activity in denervated and contralateral muscles after acute AICAR injection. The note with it: acute AICAR 1 mg/g. From the text: (§1) Rats were anesthetized with ether and the sciatic nerve of the right hindlimb was severed. The left hindlimb was sham operated to serve as a control. Both skin wounds were closed with a metal clips. The rats used for the acute study were also implanted with a jugular catheter which was exteriorized on the back of the neck at the time of denervation for rapid administration of anesthesia.
Rats were denervated between 8:30 a.m. and 10:30 a.m. and were then given 25 g of food. Rats were handled twice during the day to accustom them to being handled. The rats were given a single subcutaneous injection 24 hours. after surgery of either AICAR (1 mg/g body weight) in sterile 0.9% NaCl or with just 0.9% NaCl, and were subsequently anesthetized intravenously. Soleus and gastrocnemius muscles from both sham and denervated sides were extracted and quick frozen in liquid nitrogen for analysis. AMPK activity and acetyl-Co A carboxylase (ACC) activity were determined as previously described. Winder W W & Hardie D G, Am J. Physiol 270 (Endocrinol Metab 33): E299-E304, 1996. Because this analysis is done on homogenates prepared by ammonium sulfate precipitation, only those effects on AMPK activity modified by phosphorylation are measured. […] Because ACC is a target for phosphorylation by AMPK, and because ACC activity has been reported to decrease in response to phosphorylation by AMPK, ACC activity is measured to give an indication of the in vivo actions of AMPK.

For the next data set, the system named is GLUT4. The data set can be described thus: GLUT4 western blot in 3-day denervated and contralateral muscles after AICAR injections. Here is the method: as §1
Muscle was ground to a powder under liquid nitrogen and homogenized ([…]) in HEPES buffer [25 mM HEPES, 1 mM EDTA, 1 mM benzamadine, 1 mM 4-(2-aminoethyl)-benzene+sulfonyl fluoride, 1 μM leupeptin, 1 μM antitrypsin, 1 μM aprotinin, pH 7.5]. This homogenate was then diluted with water and Laemmli's buffer (1 mL homogenate:2 mL water: 1 mL buffer) immediately before loading. 20 μL of this homogenate were then loaded onto a 10% SDS-PAGE mini gel (Tris-HCl ready gels, BioRad, Hercules, Calif.). Samples were subjected to electrophoresis at 200 V for 45 minutes. Proteins were transferred from gel to nitrocellulose membrane at 100V for 50 minutes. Membranes were blocked in 5% non-fat milk (BioRad, Hercules, Calif.) in PBST (139 mM NaCl, 2.7 mM KH2PO4, 9.9 mM Na2HPO4, and 0.05% Tween-20) and were then left overnight with GLUT4 polyclonal antibody (Biogenesis, Kingston, N.H.) in 5% dried milk solution (1:5000 dilution). After washing twice in PBST, and twice in PBS (139 mM NaCl, 2.7 mM KH2PO4, 9.9 mM Na2HPO4), the membranes were exposed to horseradish peroxidase-conjugated donkey anti-rabbit IgG (Amersham Life Sciences, Arlington Heights, Ill.) for 1 h. at room temperature. After again washing twice with PBST and twice with PBS, the membranes were incubated in enhanced chemoluminescence-detection reagent and then visualized on enhanced chemoluminescence hyperfilm (Amersham Life Sciences). Relative amounts of GLUT4 were then quantified using a Hewlett Packard Scan Jet 6200C and SigmaGel software (SPSS, Chicago, Ill.). Western blot data are expressed as arbitrary units where individual values were divided by the mean basal GLUT4 value (sham operated leg/injected with 0.9%/NaCl solution).
Rats were injected either with AICAR (1 mg in 0.9% NaCl/g body weight) or a 0.9% NaCl solution ˜0, ˜24, and ˜48 hours after denervation and were then sacrificed ˜72 hours after denervation without injection. Rats were anesthetized with sodium pentobarbital (4.8 mg/100 g. body weight), soleus and gastrocnemius muscles from both sham and denervated sides were extracted, and muscles were quick frozen in liquid nitrogen and stored for analysis.
Rats were denervated as described above between 8:00 and 10:00 and were immediately injection with either 0.9% NaCl solution (n=4), 0.1 mg AICAR in 0.9% NaCl/g body weight (n=4), 0.5 mg AICAR in 0.9% NaCl/g body weight (n=3), or 1 mg AICAR in 0.9% NaCl/g body weight (n=4). Rats of each treatment group were subsequently injected with the respective AICAR solutions at ˜24 and ˜48 hours after denervation. Rats were killed ˜72 hours after denervation without an AICAR injection and muscles were collected as described above.
(In general: A western blot detects proteins with antibodies after separation by electrophoresis.)

Turning to `NC(=O)c1ncn([C@@H]2O[C@H](CO)[C@@H](O)[C@H]2O)c1N` [AICAR, 5-aminoimidazole-4-carboxamide-1-β-D-ribofuranoside], in data set [1] (increased 15 minutes following injection), the “time course of ZMP in muscle after subcutaneous injection of AICAR” value is recorded as “remains elevated for at least two hours”. For the same compound, the ZMP concentration in data set [1] (red quadriceps) was found to be 0.94 ± 0.08 µmol/g; in data set [1] (soleus muscle) it was 1.15 ± 0.07 µmol/g; in data set [1] (white quadriceps) it was 0.42 ± 0.04 µmol/g. Further, the “AMPK activity vs saline-treated contralateral innervated muscles” value is recorded as “significantly (P<0.05) elevated” in data set [2] (contralateral innervated gastrocnemius, FIG. 7); “significantly (P<0.05) elevated” in data set [2] (contralateral innervated soleus, FIG. 8); “significantly (P<0.05) elevated” in data set [2] (denervated gastrocnemius, FIG. 7). Also, the “GLUT4 content, percent intensity of saline-treated contralateral innervated controls” value in the data set on GLUT4 (contralateral innervated gastrocnemius, AICAR 1 mg/g for 3 days) amounted to 130.1%; with GLUT4 (denervated gastrocnemius, AICAR 1 mg/g for 3 days, saline denervated 60.1%) it was 106.6%. The “dose dependent response of GLUT4 vs saline-treated denervated gastrocnemius” value in the data set on GLUT4 (denervated gastrocnemius, doses 0.1, 0.5, 1 mg/g, result for the 1 mg/g dose, FIG. 11) is “only dose that significantly raises GLUT4 content”. Besides, the “increase of GLUT4 vs. saline-treated denervated gastrocnemius controls” value in the data set with GLUT4 (denervated gastrocnemius, subcutaneous AICAR injections) was found to be 80%. The “GLUT4 content, percent of saline-treated contralateral controls” value with GLUT4 (denervated soleus, AICAR 1 mg/g for 3 days, saline denervated 72.6%, not significant) worked out at 85.4%. Besides, the “dose dependent response of GLUT4 vs saline-treated innervated gastrocnemius” value with GLUT4 (innervated gastrocnemius, doses 0.1, 0.5, 1 mg/g, result for the 1 mg/g dose, FIG. 11) was “only dose that significantly raises GLUT4 content”.
